Laboratory results as given in ChEMBL document CHEMBL4507328, “Data for DCP probe BAY-390” (2021).

Assays:
[1] = molecular target: Transient receptor potential cation channel subfamily V member 4 (Homo sapiens, UniProt Q9HBA0); assay: TRP selectivity screen (TRPV4)
[2] = molecular target: T1, Alpha-2C adrenergic receptor (Homo sapiens) (UniProt P18825); details: Compound concentration 10.0 uM
T1 sequence (whole entry): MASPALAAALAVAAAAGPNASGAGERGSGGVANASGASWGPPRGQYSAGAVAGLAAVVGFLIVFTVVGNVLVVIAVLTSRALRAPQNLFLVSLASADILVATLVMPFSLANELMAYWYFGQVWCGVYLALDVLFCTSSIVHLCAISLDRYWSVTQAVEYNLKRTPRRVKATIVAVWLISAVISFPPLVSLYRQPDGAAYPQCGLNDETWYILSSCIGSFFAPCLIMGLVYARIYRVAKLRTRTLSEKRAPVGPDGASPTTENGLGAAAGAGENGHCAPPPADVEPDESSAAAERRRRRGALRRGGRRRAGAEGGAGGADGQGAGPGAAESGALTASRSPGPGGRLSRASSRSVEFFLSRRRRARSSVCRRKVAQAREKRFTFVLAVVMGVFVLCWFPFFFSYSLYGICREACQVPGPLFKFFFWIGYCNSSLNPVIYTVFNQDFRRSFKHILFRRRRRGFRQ

[3] = molecular target: D(3) dopamine receptor (Homo sapiens) (UniProt P35462); details: Compound concentration 10.0 uM
[4] = molecular target: Beta-1 adrenergic receptor (Homo sapiens) (UniProt P08588); details: Compound concentration 10.0 uM
[5] = molecular target: Transient receptor potential cation channel subfamily V member 1 (Homo sapiens, UniProt Q8NER1); assay: TRP selectivity screen (TRPV1)
[6] = molecular target: Mu-type opioid receptor (Homo sapiens) (UniProt P35372); details: Compound concentration 10.0 uM
[7] = molecular target: Beta-3 adrenergic receptor (Homo sapiens) (UniProt P13945); details: Compound concentration 10.0 uM
Rattus norvegicus [8] = species on record: Rattus norvegicus; details: Compound concentration 10.0 uM
Rattus norvegicus [9] = species on record: Rattus norvegicus; details: Compound concentration 10.0 uM; remark: listed apart in the source
[10] = molecular target: Insulin receptor (Homo sapiens) (UniProt P06213); details: Rattus norvegicus; Compound concentration 10.0 uM
[11] = molecular target: Muscarinic acetylcholine receptor M5 (Homo sapiens) (UniProt P08912); details: Compound concentration 10.0 uM
[12] = molecular target: T2, Muscarinic acetylcholine receptor M4 (Homo sapiens) (UniProt P08173); details: Compound concentration 10.0 uM
T2 sequence (whole entry): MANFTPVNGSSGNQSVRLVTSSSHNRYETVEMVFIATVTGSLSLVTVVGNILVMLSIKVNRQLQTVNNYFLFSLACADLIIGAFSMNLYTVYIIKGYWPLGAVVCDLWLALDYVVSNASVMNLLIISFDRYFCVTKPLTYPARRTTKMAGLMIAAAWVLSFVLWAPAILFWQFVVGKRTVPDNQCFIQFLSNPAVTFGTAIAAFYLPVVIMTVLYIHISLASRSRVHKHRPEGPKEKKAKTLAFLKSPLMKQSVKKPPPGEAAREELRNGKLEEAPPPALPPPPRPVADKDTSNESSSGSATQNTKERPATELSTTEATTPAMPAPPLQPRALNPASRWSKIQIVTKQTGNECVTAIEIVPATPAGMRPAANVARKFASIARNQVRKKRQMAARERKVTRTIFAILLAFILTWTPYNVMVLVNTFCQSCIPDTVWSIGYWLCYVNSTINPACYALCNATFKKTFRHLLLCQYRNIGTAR

[13] = molecular target: T3, 5-hydroxytryptamine receptor 2A (Homo sapiens, UniProt P28223); details: Compound concentration 10.0 uM
[14] = molecular target: Short transient receptor potential channel 3 (Homo sapiens, UniProt Q13507); assay: TRP selectivity screen (TRPC3)
[15] = molecular target: 5-hydroxytryptamine receptor 1B (Homo sapiens) (UniProt P28222); details: Compound concentration 10.0 uM
[16] = molecular target: 5-hydroxytryptamine receptor 2B (Homo sapiens) (UniProt P41595); details: Compound concentration 10.0 uM
[17] = molecular target: Beta-3 adrenergic receptor (Homo sapiens) (UniProt P13945); details: Compound concentration 10.0 uM; remark: listed apart in the source
[18] = molecular target: T4, Muscarinic acetylcholine receptor M1 (Homo sapiens) (UniProt P11229); details: Compound concentration 10.0 uM
T4 sequence (whole entry): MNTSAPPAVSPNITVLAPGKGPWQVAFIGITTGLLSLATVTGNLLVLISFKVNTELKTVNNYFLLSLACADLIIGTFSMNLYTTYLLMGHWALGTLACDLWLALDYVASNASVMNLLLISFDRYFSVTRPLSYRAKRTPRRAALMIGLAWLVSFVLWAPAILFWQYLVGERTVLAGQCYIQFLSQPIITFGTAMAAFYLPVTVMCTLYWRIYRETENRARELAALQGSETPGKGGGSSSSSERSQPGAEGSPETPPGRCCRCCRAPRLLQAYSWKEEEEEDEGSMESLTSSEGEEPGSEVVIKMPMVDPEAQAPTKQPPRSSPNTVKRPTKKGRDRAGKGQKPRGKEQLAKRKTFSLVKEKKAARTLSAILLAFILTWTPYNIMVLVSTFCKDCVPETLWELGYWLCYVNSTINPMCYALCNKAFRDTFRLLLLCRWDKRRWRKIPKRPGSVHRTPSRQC

[19] = molecular target: T3, 5-hydroxytryptamine receptor 2A; details: Compound concentration 10.0 uM; remark: listed apart in the source
[20] = molecular target: Histamine H1 receptor (Homo sapiens) (UniProt P35367); details: Compound concentration 10.0 uM
[21] = molecular target: Kappa-type opioid receptor (Homo sapiens) (UniProt P41145); details: Compound concentration 10.0 uM
[22] = molecular target: Adenosine receptor A2a (Homo sapiens) (UniProt P29274); details: Compound concentration 10.0 uM
[23] = molecular target: B1 bradykinin receptor (Homo sapiens) (UniProt P46663); assay: Inhibition of Bradykinin B1 at 10 µM in the Eurofins-Panlabs radioligand binding assay (Eurofins_assay_212510); details: Compound concentration 10.0 uM
Histamine H2 receptor [24] = molecular target: T5, Histamine H2 receptor (Homo sapiens, UniProt P25021); details: Compound concentration 10.0 uM
Histamine H2 receptor [25] = molecular target: T5, Histamine H2 receptor; details: Compound concentration 10.0 uM; remark: listed apart in the source
[26] = molecular target: T1, Alpha-2C adrenergic receptor (Homo sapiens); details: Compound concentration 10.0 uM; remark: listed apart in the source
[27] = molecular target: Adenosine receptor A1 (Homo sapiens) (UniProt P30542); details: Compound concentration 10.0 uM
[28] = molecular target: D(2) dopamine receptor (Homo sapiens) (UniProt P14416); details: Compound concentration 10.0 uM

Sequence of Beta-3 adrenergic receptor (Homo sapiens) (P13945 whole entry, looked up): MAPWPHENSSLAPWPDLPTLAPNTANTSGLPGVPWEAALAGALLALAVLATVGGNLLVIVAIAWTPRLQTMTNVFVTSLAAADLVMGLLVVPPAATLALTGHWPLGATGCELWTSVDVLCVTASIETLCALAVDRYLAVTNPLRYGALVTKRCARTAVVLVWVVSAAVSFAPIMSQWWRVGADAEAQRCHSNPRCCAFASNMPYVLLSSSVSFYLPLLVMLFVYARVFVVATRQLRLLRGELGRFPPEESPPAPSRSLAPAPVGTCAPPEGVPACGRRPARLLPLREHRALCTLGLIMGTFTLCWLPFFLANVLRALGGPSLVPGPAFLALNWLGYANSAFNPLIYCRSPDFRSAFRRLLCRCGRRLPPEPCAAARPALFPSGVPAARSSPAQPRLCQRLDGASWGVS
T3 sequence (P28223 whole entry): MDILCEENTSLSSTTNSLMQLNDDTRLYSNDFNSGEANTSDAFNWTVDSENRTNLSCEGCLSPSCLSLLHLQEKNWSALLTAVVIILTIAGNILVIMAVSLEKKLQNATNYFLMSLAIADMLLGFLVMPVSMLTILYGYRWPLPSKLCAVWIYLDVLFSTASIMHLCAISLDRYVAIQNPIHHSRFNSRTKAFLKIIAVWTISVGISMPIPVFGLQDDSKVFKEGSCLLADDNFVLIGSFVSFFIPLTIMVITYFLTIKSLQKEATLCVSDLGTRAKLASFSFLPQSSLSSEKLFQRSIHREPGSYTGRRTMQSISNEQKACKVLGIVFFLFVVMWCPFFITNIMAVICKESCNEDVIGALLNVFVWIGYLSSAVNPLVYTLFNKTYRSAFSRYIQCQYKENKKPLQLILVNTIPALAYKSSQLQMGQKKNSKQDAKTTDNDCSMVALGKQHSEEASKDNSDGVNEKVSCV
T5 sequence (P25021 whole entry): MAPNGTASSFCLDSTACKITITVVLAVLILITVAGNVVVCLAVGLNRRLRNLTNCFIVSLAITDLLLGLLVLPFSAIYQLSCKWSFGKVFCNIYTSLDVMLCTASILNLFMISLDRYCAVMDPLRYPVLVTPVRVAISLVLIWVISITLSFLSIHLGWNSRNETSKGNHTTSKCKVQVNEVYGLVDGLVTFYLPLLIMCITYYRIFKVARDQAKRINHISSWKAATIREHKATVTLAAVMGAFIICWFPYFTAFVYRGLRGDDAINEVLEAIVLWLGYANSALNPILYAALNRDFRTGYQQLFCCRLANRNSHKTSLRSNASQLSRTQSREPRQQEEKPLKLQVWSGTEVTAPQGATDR
Sequence of Kappa-type opioid receptor (Homo sapiens) (P41145 whole entry): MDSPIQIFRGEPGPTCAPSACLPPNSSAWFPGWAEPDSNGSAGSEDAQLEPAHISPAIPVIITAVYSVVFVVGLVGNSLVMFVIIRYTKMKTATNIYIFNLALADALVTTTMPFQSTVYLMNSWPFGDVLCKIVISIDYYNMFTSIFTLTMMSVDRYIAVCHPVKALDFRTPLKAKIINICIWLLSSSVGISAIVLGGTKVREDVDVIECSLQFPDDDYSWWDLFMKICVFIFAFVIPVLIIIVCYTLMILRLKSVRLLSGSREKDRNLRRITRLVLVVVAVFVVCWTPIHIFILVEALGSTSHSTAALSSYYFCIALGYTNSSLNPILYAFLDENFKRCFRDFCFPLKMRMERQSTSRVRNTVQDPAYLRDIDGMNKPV
Sequence of Transient receptor potential cation channel subfamily V member 4 (Q9HBA0 whole entry): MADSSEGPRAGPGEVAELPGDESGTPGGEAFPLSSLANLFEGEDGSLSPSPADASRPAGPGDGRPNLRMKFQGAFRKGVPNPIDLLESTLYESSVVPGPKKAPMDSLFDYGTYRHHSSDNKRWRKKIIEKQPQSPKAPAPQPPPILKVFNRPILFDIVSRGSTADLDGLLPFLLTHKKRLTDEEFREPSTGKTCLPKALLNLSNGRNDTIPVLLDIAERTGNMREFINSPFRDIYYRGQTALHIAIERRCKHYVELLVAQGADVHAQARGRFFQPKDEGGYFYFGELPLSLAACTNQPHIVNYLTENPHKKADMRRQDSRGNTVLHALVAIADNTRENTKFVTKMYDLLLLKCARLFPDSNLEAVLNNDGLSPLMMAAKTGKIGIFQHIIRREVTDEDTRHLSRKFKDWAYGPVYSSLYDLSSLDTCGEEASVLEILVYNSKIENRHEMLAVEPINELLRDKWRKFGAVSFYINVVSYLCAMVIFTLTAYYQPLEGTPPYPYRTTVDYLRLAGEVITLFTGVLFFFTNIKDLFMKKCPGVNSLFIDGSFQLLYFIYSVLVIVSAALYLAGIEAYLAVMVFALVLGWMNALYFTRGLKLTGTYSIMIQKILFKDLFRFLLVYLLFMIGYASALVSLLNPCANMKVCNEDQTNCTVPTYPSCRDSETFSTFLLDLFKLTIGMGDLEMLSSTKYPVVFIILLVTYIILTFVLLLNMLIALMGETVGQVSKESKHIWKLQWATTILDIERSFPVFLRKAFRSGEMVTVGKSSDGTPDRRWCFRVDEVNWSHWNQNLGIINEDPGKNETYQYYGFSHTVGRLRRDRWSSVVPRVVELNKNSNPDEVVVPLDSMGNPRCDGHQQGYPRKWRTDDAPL
Sequence of Muscarinic acetylcholine receptor M5 (Homo sapiens) (P08912 whole entry): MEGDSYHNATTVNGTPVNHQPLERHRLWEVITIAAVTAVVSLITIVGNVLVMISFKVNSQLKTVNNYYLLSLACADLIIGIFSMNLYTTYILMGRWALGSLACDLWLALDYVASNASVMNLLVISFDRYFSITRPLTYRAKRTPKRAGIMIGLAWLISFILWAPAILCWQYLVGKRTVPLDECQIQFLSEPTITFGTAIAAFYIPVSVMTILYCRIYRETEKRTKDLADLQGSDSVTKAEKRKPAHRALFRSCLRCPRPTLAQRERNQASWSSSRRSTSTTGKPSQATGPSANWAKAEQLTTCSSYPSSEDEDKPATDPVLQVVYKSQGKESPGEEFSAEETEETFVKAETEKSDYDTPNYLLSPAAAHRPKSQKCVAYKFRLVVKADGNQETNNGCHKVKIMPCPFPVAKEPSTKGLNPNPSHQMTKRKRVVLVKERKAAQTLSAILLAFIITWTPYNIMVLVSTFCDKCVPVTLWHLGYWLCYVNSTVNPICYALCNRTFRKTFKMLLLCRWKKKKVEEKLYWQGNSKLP
Sequence of Transient receptor potential cation channel subfamily V member 1 (Q8NER1 whole entry): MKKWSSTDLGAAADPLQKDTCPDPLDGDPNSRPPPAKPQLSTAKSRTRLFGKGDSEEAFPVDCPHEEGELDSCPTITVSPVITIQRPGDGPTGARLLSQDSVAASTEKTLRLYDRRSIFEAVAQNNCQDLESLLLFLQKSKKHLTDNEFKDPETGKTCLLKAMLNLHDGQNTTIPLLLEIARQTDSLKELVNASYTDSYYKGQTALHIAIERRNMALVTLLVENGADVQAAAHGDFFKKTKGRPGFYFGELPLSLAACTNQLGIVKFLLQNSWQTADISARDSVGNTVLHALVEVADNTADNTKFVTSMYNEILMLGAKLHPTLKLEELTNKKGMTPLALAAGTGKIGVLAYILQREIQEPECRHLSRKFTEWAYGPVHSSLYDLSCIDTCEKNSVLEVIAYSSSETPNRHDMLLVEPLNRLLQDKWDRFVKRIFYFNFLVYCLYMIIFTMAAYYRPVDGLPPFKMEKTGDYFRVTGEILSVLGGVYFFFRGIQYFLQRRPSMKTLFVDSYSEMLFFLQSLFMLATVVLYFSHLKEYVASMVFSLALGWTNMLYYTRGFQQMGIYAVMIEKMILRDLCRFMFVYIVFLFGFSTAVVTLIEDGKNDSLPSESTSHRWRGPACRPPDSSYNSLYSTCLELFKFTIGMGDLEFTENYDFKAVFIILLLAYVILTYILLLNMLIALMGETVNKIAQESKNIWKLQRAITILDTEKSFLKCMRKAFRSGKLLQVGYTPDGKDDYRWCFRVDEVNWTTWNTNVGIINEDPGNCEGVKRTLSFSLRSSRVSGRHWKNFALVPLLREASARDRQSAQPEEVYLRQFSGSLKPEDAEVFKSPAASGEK
Sequence of Beta-1 adrenergic receptor (Homo sapiens) (P08588 whole entry, looked up): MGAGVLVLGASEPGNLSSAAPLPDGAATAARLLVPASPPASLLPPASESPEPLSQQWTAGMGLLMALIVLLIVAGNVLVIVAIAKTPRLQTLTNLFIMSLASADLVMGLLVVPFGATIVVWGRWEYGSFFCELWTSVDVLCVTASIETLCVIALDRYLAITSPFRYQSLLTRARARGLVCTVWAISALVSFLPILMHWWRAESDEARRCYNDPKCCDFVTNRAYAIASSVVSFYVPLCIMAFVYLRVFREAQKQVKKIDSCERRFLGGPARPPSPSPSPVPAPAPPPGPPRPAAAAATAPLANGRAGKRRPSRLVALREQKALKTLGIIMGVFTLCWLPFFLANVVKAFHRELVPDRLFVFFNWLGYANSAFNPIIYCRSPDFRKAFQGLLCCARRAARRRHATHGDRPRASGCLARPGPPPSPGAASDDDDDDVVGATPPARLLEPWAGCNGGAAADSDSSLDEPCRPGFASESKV
Sequence of Mu-type opioid receptor (Homo sapiens) (P35372 whole entry): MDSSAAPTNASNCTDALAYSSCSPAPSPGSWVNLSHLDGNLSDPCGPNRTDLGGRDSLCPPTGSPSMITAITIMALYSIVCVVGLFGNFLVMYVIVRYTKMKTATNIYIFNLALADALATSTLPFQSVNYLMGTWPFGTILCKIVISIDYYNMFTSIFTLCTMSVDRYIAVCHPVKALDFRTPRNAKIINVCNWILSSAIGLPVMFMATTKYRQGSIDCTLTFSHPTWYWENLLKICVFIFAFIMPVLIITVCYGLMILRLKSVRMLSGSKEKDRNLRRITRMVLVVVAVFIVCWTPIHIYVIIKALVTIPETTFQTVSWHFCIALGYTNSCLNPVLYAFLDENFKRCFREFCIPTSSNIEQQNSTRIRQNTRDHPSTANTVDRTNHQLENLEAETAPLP

Compound | IC50 [1] | inhibition [4] [%] | IC50 [5] | inhibition [6] [%] | inhibition [7] [%] | inhibition (Rattus norvegicus [8]) [%] | inhibition [11] [%] | inhibition [12] [%] | inhibition [18] [%] | inhibition [19] [%] | inhibition [21] [%] | inhibition (Histamine H2 receptor [24]) [%] | inhibition [26] [%] | other results
O[C@]1(C(F)(F)F)CCCC[C@H]1Nc1ccc(F)cc1 [BAY-390] | > 25 µM (not active) | 20.2 | > 25 µM (not active) | 6.05 | 31 | 2.79 | 10.4 | 13.9 | 8.3 | 69.4 | 9.94 | -1.07 | 4.19 | inhibition [2]: -1%; inhibition [3]: 9%; inhibition (Rattus norvegicus [9]): -5%; inhibition [10]: 8%; inhibition [13]: -2%; IC50 [14]: > 25 µM (not active); inhibition [15]: -3.12%; inhibition [16]: -4%; inhibition [17]: 1%; inhibition [20]: 6%; inhibition [22]: 3%; inhibition [23]: 9%; inhibition (Histamine H2 receptor [25]): -8%; inhibition [27]: 18%
COc1cc(N[C@@H]2CCCC[C@]2(O)C(F)(F)F)ccc1F [BAY-9897] | > 25 µM (not active) | -0.24 | > 25 µM (not active) | 10.3 | 34.2 | -1.71 | -5.5 | -3.95 | 18.5 | 1 | 10.5 | 89 | -3.92 | inhibition [28]: -4.34%
